Test results taken from US10709653B2, “Cosmetic compositions comprising spiculisporic acid and at least one sulfate and/or sulfonate surfactant” (L'OREAL, priority 2013, dated 2020).
Like-named read-outs stand apart in the source and are kept apart here.

Tests used:
[1] = cited from earlier work
[2] = Aspect and pH on storage of spiculisporic acid solutions pre-solubilized with KOH, alone or with surfactants (Example 2); type: physicochemical
Description: Solutions containing the S-acid at 4% or 8% (neutralized with an amount of KOH calculated so as to obtain the di-potassium salt of S-acid, i.e. R1=2) and surfactants, were made.

[3] = Aspect and pH on storage of S-acid solutions salified with KOH, Arg or TEA with sulfate or sulfonate surfactant (Example 3); type: physicochemical; set-up: key to Aspect (macroscopic observation) 15 days 4° C. / Aspect (macroscopic observation) 15 days RT: *: showed a precipitate; conditions: S-acid 4.00% MA
Protocol: The compositions of Table 3 above were prepared according to the following operating procedure:
Phase A was heated to 40° C. After solubilization of the S-acid, the phase B was added to the Phase A. Next, the phase C was added after phase B.
A portion of the solution was stored at room temperature and the other one at 4° C.

[4] = S-acid 4% MA, KOH (R=2), named surfactant 4% if any
[5] = sulfate surfactant 4.00% MA, base Arg, R 1.10
[6] = sulfate surfactant 4.00% MA, base Arg, R 1.25
[7] = sulfate surfactant 4.00% MA, base Arg, R 1.75
[8] = sulfate surfactant 4.00% MA, base Arg, R 2.00
[9] = sulfate surfactant 4.00% MA, base KOH, R 2.00
[10] = sulfate surfactant 4.00% MA, base TEA, R 1.10
[11] = sulfate surfactant 4.00% MA, base TEA, R 1.25
[12] = sulfate surfactant 4.00% MA, base TEA, R 1.75
[13] = sulfate surfactant 4.00% MA, base TEA, R 2.00
[14] = sulfonate surfactant 4.00% MA, base Arg, R 1.10
[15] = sulfonate surfactant 4.00% MA, base Arg, R 1.25
[16] = sulfonate surfactant 4.00% MA, base Arg, R 1.75
[17] = sulfonate surfactant 4.00% MA, base Arg, R 2.00
[18] = sulfonate surfactant 4.00% MA, base KOH, R 2.00
[19] = sulfonate surfactant 4.00% MA, base TEA, R 1.10
[20] = sulfonate surfactant 4.00% MA, base TEA, R 1.25
[21] = sulfonate surfactant 4.00% MA, base TEA, R 1.75
[22] = sulfonate surfactant 4.00% MA, base TEA, R 2.00

For `CCCCCCCCCCC(C(=O)O)C1(C(=O)O)CCC(=O)O1` (stereo not drawn) [S-acid, 4,5-dicarboxy-4-pentadecanolide], the Solubility in water ([1]; high temperature) is listed as “partly soluble”, the Solubility in ethanol ([1]; room temperature) is listed as “soluble” and the Solubility in fats ([1]; room temperature) is listed as “insoluble”. The Solubility in water ([1]; room temperature) was “insoluble”, the “pH t0 RT” value ([2]; S-acid 4% MA, KOH (R=2), named surfactant 4% active material if any) was 5.97 and the “pH 20 days after storage T = 4° C.” value [2, 4] was 6.01. The “pH 20 days after storage RT” value [2, 4] was 6.02, the “Aspect after 20 days of storage at 4° C.” value ([2]; S-acid 4%, KOH (R=2), surfactant 4% if any) was “precipitation” and the “pH 20 days after storage T = 4° C.” value ([2]; S-acid 8% MA, KOH (R=2)) was 6.47. The “pH 20 days after storage RT” value ([2]; S-acid 8% MA, KOH (R=2)) was 6.47, the “pH t0 RT” value ([2]; S-acid 8% MA, neutralized with KOH (R=2)) was 6.43 and the “Aspect after 20 days of storage at 4° C.” value ([2]; S-acid 8%, KOH (R=2)) was “precipitation”. For the same compound, the “pH 15 days 4° C.” value [3, 5] was 5.19, the “pH 15 days RT” value [3, 5] was 5.11 and the “pH 15 days 4° C.” value [3, 6] was 5.33. The “pH 15 days RT” value [3, 6] was 5.34, the “pH 15 days 4° C.” value [3, 7] was 5.93 and the “pH 15 days RT” value [3, 7] was 5.95. The “pH 15 days 4° C.” value [3, 8] was 6.25, the “pH 15 days RT” value [3, 8] was 6.21 and the “Aspect (macroscopic observation) 15 days 4° C.” value [3, 9] was “*”. For the same compound, the “Aspect (macroscopic observation) 15 days RT” value [3, 9] was “*”, the “pH 15 days 4° C.” value [3, 9] was 6.24 and the “pH 15 days RT” value [3, 9] was 6.33. The “pH 15 days 4° C.” value [3, 10] was 5.26, the “pH 15 days RT” value [3, 10] was 5.19 and the “pH 15 days 4° C.” value [3, 11] was 5.38. The “pH 15 days RT” value [3, 11] was 5.39, the “pH 15 days 4° C.” value [3, 12] was 6.02 and the “pH 15 days RT” value [3, 12] was 5.98. The “pH 15 days 4° C.” value [3, 13] was 6.32, the “pH 15 days RT” value [3, 13] was 6.32 and the “pH 15 days 4° C.” value [3, 14] was 5.07. For the same compound, the “pH 15 days RT” value [3, 14] was 5.00, the “pH 15 days 4° C.” value [3, 15] was 5.28 and the “pH 15 days RT” value [3, 15] was 5.27. The “pH 15 days 4° C.” value [3, 16] was 5.89, the “pH 15 days RT” value [3, 16] was 5.93 and the “pH 15 days 4° C.” value [3, 17] was 6.19. For the same compound, the “pH 15 days RT” value [3, 17] was 6.18, the “Aspect (macroscopic observation) 15 days 4° C.” value [3, 18] was “*” and the “pH 15 days 4° C.” value [3, 18] was 6.34. For the same compound, the “pH 15 days RT” value [3, 18] was 6.43, the “pH 15 days 4° C.” value [3, 19] was 5.22 and the “pH 15 days RT” value [3, 19] was 5.17. For the same compound, the “pH 15 days 4° C.” value [3, 20] was 5.37, the “pH 15 days RT” value [3, 20] was 5.33 and the “pH 15 days 4° C.” value [3, 21] was 5.96. The “pH 15 days RT” value [3, 21] was 5.97, the “pH 15 days 4° C.” value [3, 22] was 6.34 and the “pH 15 days RT” value [3, 22] was 6.33.
